From PubChem BioAssay (NCI)
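Tested at 5 concentrations; 48 h exposure; 96-well plates; endpoints linearly interpolated, else capped at highest concentration. TGI: total growth inhibition.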

Key:
Assay in all cases: NCI-60 cell line screen, 48 h
[1] = tested on: 786-0 renal
[2] = tested on: A498 renal
[3] = tested on: A549 NSCLC
[4] = tested on: ACHN renal
[5] = tested on: CCRF-CEM leukemia
[6] = tested on: COLO 205 colon
[7] = tested on: DLD-1 colon
[8] = tested on: DMS 114 small cell lung
[9] = tested on: DMS 273 small cell lung
[10] = tested on: EKVX NSCLC
[11] = tested on: HCC-2998 colon
[12] = tested on: HCT-116 colon
[13] = tested on: HCT-15 colon
[14] = tested on: HL-60(TB) leukemia
[15] = tested on: HOP-18 NSCLC
[16] = tested on: HOP-92 NSCLC
[17] = tested on: HT29 colon
[18] = tested on: IGROV1 ovarian
[19] = tested on: K-562 leukemia
[20] = tested on: KM12 colon
[21] = tested on: KM20L2 colon
[22] = tested on: LOX IMVI melanoma
[23] = tested on: LXFL 529 NSCLC
[24] = tested on: M14 melanoma
[25] = tested on: M19-MEL melanoma
[26] = tested on: MOLT-4 leukemia
[27] = tested on: NCI-H226 lung
[28] = tested on: NCI-H23 lung
[29] = tested on: NCI-H460 lung
[30] = tested on: OVCAR-3 ovarian
[31] = tested on: OVCAR-4 ovarian
[32] = tested on: OVCAR-8 ovarian
[33] = tested on: RPMI-8226 leukemia
[34] = tested on: SF-295 CNS
[35] = tested on: SF-539 CNS
[36] = tested on: SK-MEL-2 melanoma
[37] = tested on: SK-MEL-28 melanoma
[38] = tested on: SK-MEL-5 melanoma
[39] = tested on: SK-OV-3 ovarian
[40] = tested on: SN12C renal
[41] = tested on: SNB-19 CNS
[42] = tested on: SNB-75 CNS
[43] = tested on: SNB-78 CNS
[44] = tested on: SW-620 colon
[45] = tested on: TK-10 renal
[46] = tested on: U251 CNS
[47] = tested on: UACC-62 melanoma
[48] = tested on: UO-31 renal
[49] = tested on: BT-549 breast
[50] = tested on: CAKI-1 renal
[51] = tested on: DU-145 prostate
[52] = tested on: HOP-62 NSCLC
[53] = tested on: HS 578T breast
[54] = tested on: MALME-3M melanoma
[55] = tested on: MCF7 breast
[56] = tested on: MDA-MB-231 breast
[57] = tested on: MDA-MB-435
[58] = tested on: MDA-N
[59] = tested on: NCI-H522 lung
[60] = tested on: NCI/ADR-RES ovarian
[61] = tested on: OVCAR-5 ovarian
[62] = tested on: PC-3 prostate
[63] = tested on: RXF 393 renal
[64] = tested on: SF-268 CNS
[65] = tested on: SR leukemia
[66] = tested on: T-47D breast
[67] = tested on: UACC-257 melanoma

C=C1C2CC(OC(C)=O)C3(C)C(c4ccoc4)OC(=O)[C@@H](O)[C@]13OC1C[C@H](OC(C)=O)C(C)(C)[C@H](C(O)C(=O)OC)[C@]12C (some centres not stated)
TGI [1]: > 100 µM
TGI [2]: > 100 µM
TGI [3]: > 100 µM
TGI [4]: > 100 µM
TGI [5]: > 100 µM
TGI [6]: > 100 µM
TGI [7]: > 100 µM
TGI [8]: > 100 µM
TGI [9]: > 100 µM
TGI [10]: > 100 µM
TGI [11]: > 100 µM
TGI [12]: > 100 µM
TGI [13]: > 100 µM
TGI [14]: > 100 µM
TGI [15]: > 100 µM
TGI [16]: 57.6 µM
TGI [17]: > 100 µM
TGI [18]: > 100 µM
TGI [19]: > 100 µM
TGI [20]: > 100 µM
TGI [21]: > 100 µM
TGI [22]: > 100 µM
TGI [23]: > 100 µM
TGI [24]: > 100 µM
TGI [25]: > 100 µM
TGI [26]: > 100 µM
TGI [27]: > 100 µM
TGI [28]: > 100 µM
TGI [29]: > 100 µM
TGI [30]: > 100 µM
TGI [31]: > 100 µM
TGI [32]: > 100 µM
TGI [33]: > 100 µM
TGI [34]: > 100 µM
TGI [35]: > 100 µM
TGI [36]: > 100 µM
TGI [37]: > 100 µM
TGI [38]: > 100 µM
TGI [39]: > 100 µM
TGI [40]: > 100 µM
TGI [41]: > 100 µM
TGI [42]: > 100 µM
TGI [43]: > 100 µM
TGI [44]: > 100 µM
TGI [45]: > 100 µM
TGI [46]: > 100 µM
TGI [47]: > 100 µM
TGI [48]: > 100 µM

CCOC(=O)C1=NN(c2ccc(C)cc2)C2(c3ccccc3)C=C(c3ccccc3)N(C)CCN12 (configuration not stated)
TGI [1]: > 100 µM
TGI [2]: > 100 µM
TGI [3]: > 100 µM
TGI [4]: > 100 µM
TGI [49]: > 100 µM
TGI [50]: > 100 µM
TGI [5]: > 100 µM
TGI [6]: > 100 µM
TGI [51]: > 100 µM
TGI [10]: > 100 µM
TGI [11]: > 100 µM
TGI [12]: > 100 µM
TGI [13]: > 100 µM
TGI [14]: > 100 µM
TGI [52]: > 100 µM
TGI [16]: > 100 µM
TGI [53]: > 100 µM
TGI [17]: > 100 µM
TGI [18]: > 100 µM
TGI [19]: > 100 µM
TGI [20]: > 100 µM
TGI [22]: > 100 µM
TGI [24]: > 100 µM
TGI [54]: > 100 µM
TGI [55]: > 100 µM
TGI [56]: > 100 µM
TGI [57]: > 100 µM
TGI [58]: > 100 µM
TGI [26]: > 100 µM
TGI [27]: > 100 µM
TGI [28]: > 100 µM
TGI [59]: > 100 µM
TGI [60]: > 100 µM
TGI [30]: > 100 µM
TGI [31]: > 100 µM
TGI [61]: > 100 µM
TGI [32]: > 100 µM
TGI [62]: > 100 µM
TGI [33]: > 100 µM
TGI [63]: > 100 µM
TGI [64]: > 100 µM
TGI [34]: > 100 µM
TGI [35]: > 100 µM
TGI [36]: > 100 µM
TGI [37]: > 100 µM
TGI [38]: > 100 µM
TGI [39]: > 100 µM
TGI [40]: > 100 µM
TGI [41]: > 100 µM
TGI [42]: > 100 µM
TGI [65]: > 100 µM
TGI [44]: > 100 µM
TGI [66]: > 100 µM
TGI [45]: > 100 µM
TGI [46]: > 100 µM
TGI [67]: > 100 µM
TGI [47]: > 100 µM
TGI [48]: > 100 µM

C/C(=N\N)C(CN1CCOCC1)C(c1ccccc1)c1c(O)c2ccccc2oc1=O (configuration not stated)
TGI [1]: > 100 µM
TGI [2]: > 100 µM
TGI [3]: > 100 µM
TGI [4]: > 100 µM
TGI [49]: > 100 µM
TGI [50]: > 100 µM
TGI [5]: > 100 µM
TGI [6]: > 63.5 µM
TGI [7]: > 100 µM
TGI [8]: > 100 µM
TGI [9]: > 100 µM
TGI [51]: > 100 µM
TGI [10]: > 100 µM
TGI [11]: > 100 µM
TGI [12]: > 100 µM
TGI [13]: > 100 µM
TGI [14]: > 100 µM
TGI [52]: > 100 µM
TGI [16]: > 100 µM
TGI [53]: > 100 µM
TGI [17]: > 100 µM
TGI [18]: > 100 µM
TGI [19]: > 100 µM
TGI [20]: > 100 µM
TGI [21]: > 100 µM
TGI [22]: > 31.6 µM
TGI [23]: > 100 µM
TGI [24]: > 100 µM
TGI [25]: > 100 µM
TGI [54]: > 100 µM
TGI [55]: > 100 µM
TGI [56]: > 100 µM
TGI [57]: > 100 µM
TGI [58]: > 100 µM
TGI [26]: > 80.8 µM
TGI [27]: > 100 µM
TGI [28]: > 100 µM
TGI [29]: > 100 µM
TGI [59]: > 100 µM
TGI [60]: > 100 µM
TGI [30]: > 100 µM
TGI [31]: > 100 µM
TGI [61]: > 100 µM
TGI [32]: > 100 µM
TGI [62]: > 100 µM
TGI [33]: > 100 µM
TGI [63]: > 51.9 µM
TGI [64]: > 100 µM
TGI [34]: > 100 µM
TGI [35]: > 100 µM
TGI [36]: > 100 µM
TGI [37]: > 100 µM
TGI [38]: > 100 µM
TGI [39]: > 100 µM
TGI [40]: > 100 µM
TGI [41]: > 100 µM
TGI [42]: > 100 µM
TGI [43]: > 100 µM
TGI [65]: > 100 µM
TGI [44]: > 100 µM
TGI [66]: > 100 µM
TGI [45]: > 100 µM
TGI [46]: > 100 µM
TGI [67]: > 100 µM
TGI [47]: > 100 µM
TGI [48]: > 100 µM
